Assay results: patent publication US10590106B2, “Certain chemical entities, compositions, and methods” (NeuPharma, Inc., priority 2012, dated 2020)
pIC50: −log10 of the molar value.

Legend:
[1] = target: BRAF (Homo sapiens (Human), UniProt P15056); assay: Inhibitory activity against kinase BRAF, Z'-LYTE method (Invitrogen); format: biochemical; settings: 1 μM compound
Outline: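 Z′-LYTE FRET kinase assay in 50 mM HEPES pH 7.5, 10 mM MgCl2, 1 mM EGTA, 0.01% Brij-35, with a 60 min RT kinase reaction, then 60 min development. IC50 was taken from % inhibition versus concentration. Values may be given as % inhibition at 1 μM.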

[2] = target: BRAF V600E (Homo sapiens (Human), UniProt P15056, V600E); assay: Inhibitory activity against kinase BRAF V600E, Z'-LYTE method (Invitrogen); format: biochemical; settings: for inhibition at 1 µM: 1 μM compound, read-out: Inhibition (% inhibition at 1 μM) against BRAF V600E
Outline: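 FRET-based Z′-LYTE peptide-phosphorylation assay in 50 mM HEPES pH 7.5, 0.01% BRIJ-35, 10 mM MgCl2, 1 mM EGTA; kinase reaction 60 min at room temperature, then 60 min development before fluorescence read. IC50 from concentration vs % inhibition; single-point % inhibition tested at 1 μM.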

[3] = target: KDR (VEGFR2) (Homo sapiens (Human), UniProt P35968); assay: Inhibitory activity against kinase KDR, Z'-LYTE method (Invitrogen); format: biochemical; settings: for inhibition at 1 µM: 1 μM compound, read-out: Inhibition (% inhibition at 1 μM) against KDR
Outline: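 Human KDR (VEGFR2) kinase inhibition was measured with Invitrogen's Z′-LYTE® method. A 2× mixture of KDR and Tyr 01 peptide is made in 50 mM HEPES pH 7.5, 0.01% BRIJ-35, 10 mM MgCl2, 1 mM EGTA. Each 10 μL reaction holds 0.5-11.7 ng enzyme and 2 μM Tyr 01. It incubates for 1 hour, then 5 μL of Development Reagent B diluted 1:256 is added.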

[4] = tested on: A375 cells; assay: Inhibition of cancer cell growth, MTT or MTS assay, A375; format: cell-based; settings: Homo sapiens, A-375; 72 h incubation
Outline: (§1)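 Cells in RPMI 1640 with 10% FBS were seeded at ~2000 (A375) or 4000 (A549, Colo205) per well, grown 24 h, then exposed to compound 72 h at 1% final DMSO. Read-out by MTT (570 nm) or MTS (490 nm). IC50 from concentration vs percent inhibition, triplicates.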

[5] = tested on: A549 cells; assay: Inhibition of cancer cell growth, MTT or MTS assay, A549; format: cell-based; settings: Homo sapiens, 72 h incubation
Outline: as §1

[6] = tested on: Colo205 cells; assay: Inhibition of cancer cell growth, MTT or MTS assay, Colo205; format: cell-based; settings: Homo sapiens, COLO 205; 72 h incubation
Procedure: Inhibition of cell growth by compounds was measured using MTT or MTS assay. Tumor cell lines were purchased from ATCC (American Type Culture Collection, Manassas, Va.). All cell lines were maintained in RPMI 1640 (Hyclone) supplemented with 10% fetal bovine serum (FBS, Hyclone), glutamine (2 mM, Hyclone), and antibiotics (penicillin 100 U/mL and streptomycin 50 μg/mL) at 37° C. in a humidified atmosphere of 5% CO2 in air. Taxol (as a positive control, Sigma) and compounds were dissolved in DMSO (Sigma), and the final concentration of DMSO in the medium was 1%. Tumor cells were plated in 96-well plates at densities of about 2000 (A375) or 4000 (A549 and Colo205) cells/well of a 96-well plate and allowed to adhere/grow for 24 h. They were then treated with various concentrations of drug and incubated for 72 h. For MTT method, medium was then removed by inverting and tapping the plates. 100 μL of MTT (0.5 mg/ml) was added to each well followed by an incubated at 37° C. for 4 h. MTT was then removed and 200 μL of DMSO was added to each well, and the ODs at 570 nm were measured after a 5 second shaking cycle in a 96-well spectrophotometer. For MTS method, 20 μL MTS (CellTiter 96 Aqueous One Solution, Promega) was added to each well followed by an incubated at 37° C. for 2-4 h, solutions were then directly put in a 96-well spectrophotometer, and the ODs at 490 nm were measured.
All concentrations of compounds were tested in triplicate and controls were averaged over 4 wells. IC50 was calculated by plotting the concentration of compound vs the percentage of inhibition in treated wells using GraphPad Prism 5. […] The scale utilized in Tables […] is as follows: +++ less than 1000 nM; ++ between 1000 nM and 5000 nM; and + greater than 5000 nM. The scale utilized in Table 8 is as follows: +++ less than 2000 nM; ++ between 2000 nM and 5000 nM; and + greater than 5000 nM.

[7] = tested on: Colo205 tumor xenograft; assay: Inhibition of tumor growth in Colo205 tumor xenograft model; format: in vivo, BALB/c female nude mice; settings: 30 mg/kg, qd × 14, i.p.; for Tumor Volume Post-treatment: after treatment; for Tumor Volume Pre-treatment: before treatment
Procedure: Cells were implanted in BALB/c female nude mice and grown as tumor xenografts. When tumors achieved 120-200 mm^3, mice were assigned into treatment and control groups using randomized block design based upon their tumor volumes. Each group contained 6 tumor-bearing mice. Tumors were measured twice weekly in two dimensions using a caliper, and the tumor volume was calculated from two-dimensional measurements using the equation V=0.5×a×b^2 where a and b are the long and short diameters of the tumor, respectively. Relative tumor volume (RTV) was defined as TVt/TVi, the ratio of the volume on a given day (TVt) and the volume at the start of treatment (TVi). Relative tumor growth rate (T/C) was defined as RTVT/RTVC, the ratio of relative tumor volume of treatment group (RTVT) and relative tumor volume of control group (RTVC) on a given day. Inhibition of tumor growth in a Colo205 tumor xenograft model is shown below in Table 10 for a compound of Table 1.

BRAF V600E, sequence (P15056 whole entry V600E): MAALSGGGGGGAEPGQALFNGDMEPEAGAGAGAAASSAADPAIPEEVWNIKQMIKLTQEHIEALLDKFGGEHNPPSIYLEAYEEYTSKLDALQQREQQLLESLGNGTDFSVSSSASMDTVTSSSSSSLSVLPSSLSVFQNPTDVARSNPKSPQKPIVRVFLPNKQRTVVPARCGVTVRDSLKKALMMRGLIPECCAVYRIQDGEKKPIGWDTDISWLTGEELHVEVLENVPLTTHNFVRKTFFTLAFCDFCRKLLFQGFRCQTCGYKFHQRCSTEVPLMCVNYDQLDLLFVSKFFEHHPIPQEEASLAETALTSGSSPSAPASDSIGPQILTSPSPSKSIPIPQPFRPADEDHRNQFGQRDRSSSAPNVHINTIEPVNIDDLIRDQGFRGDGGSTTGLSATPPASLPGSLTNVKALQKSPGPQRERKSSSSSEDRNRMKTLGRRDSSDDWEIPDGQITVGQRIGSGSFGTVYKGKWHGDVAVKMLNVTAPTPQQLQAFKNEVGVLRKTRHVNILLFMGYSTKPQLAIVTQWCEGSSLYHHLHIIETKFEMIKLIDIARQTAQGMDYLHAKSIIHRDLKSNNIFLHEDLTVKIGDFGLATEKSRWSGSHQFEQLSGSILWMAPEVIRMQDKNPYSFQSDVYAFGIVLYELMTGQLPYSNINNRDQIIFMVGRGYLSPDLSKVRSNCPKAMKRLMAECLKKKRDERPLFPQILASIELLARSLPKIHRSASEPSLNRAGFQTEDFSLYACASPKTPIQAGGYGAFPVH
KDR (VEGFR2), sequence (P35968 20-1356): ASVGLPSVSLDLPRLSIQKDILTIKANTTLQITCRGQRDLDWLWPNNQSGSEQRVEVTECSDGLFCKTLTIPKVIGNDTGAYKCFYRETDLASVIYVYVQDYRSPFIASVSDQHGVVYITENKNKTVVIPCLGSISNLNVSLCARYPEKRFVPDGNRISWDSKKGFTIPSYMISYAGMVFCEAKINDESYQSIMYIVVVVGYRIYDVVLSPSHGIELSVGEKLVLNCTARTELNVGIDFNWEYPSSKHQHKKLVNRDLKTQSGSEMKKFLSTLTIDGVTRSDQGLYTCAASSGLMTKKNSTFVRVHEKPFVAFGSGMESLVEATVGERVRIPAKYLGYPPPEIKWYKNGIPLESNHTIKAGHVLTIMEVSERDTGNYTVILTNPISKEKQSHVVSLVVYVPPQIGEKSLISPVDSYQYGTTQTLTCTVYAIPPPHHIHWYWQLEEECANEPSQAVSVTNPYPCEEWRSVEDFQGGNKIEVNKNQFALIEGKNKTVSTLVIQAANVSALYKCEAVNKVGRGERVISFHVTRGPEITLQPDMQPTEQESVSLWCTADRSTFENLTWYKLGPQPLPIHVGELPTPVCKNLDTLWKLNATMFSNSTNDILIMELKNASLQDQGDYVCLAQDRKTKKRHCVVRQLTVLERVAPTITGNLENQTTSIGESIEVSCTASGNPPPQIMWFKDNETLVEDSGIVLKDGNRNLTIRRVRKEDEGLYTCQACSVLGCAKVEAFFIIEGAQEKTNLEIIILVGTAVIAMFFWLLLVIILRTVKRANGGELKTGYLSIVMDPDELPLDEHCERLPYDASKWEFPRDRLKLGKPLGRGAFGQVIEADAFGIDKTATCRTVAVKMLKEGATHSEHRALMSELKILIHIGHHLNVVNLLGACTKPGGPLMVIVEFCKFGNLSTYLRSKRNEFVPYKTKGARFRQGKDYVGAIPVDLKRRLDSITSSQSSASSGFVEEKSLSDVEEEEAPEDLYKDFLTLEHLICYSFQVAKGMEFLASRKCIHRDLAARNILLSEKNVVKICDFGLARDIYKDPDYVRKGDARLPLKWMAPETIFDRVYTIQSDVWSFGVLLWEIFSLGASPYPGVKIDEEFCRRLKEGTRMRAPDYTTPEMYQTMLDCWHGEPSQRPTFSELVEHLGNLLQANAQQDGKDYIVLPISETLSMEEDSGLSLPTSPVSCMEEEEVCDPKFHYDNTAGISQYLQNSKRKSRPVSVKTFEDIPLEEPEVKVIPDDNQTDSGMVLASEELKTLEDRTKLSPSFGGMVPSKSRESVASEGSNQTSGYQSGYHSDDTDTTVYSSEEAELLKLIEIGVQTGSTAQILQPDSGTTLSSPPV
BRAF, sequence (P15056 whole entry): as the sequence (P15056 whole entry V600E) above, with E600V counted along it

| inhibition at 1 µM [1] [%] | inhibition at 1 µM [2] [%] | inhibition at 1 µM [3] [%] | pIC50 [4] | pIC50 [5] | pIC50 [6] | pIC50 [2] | pIC50 [3] | SMILES | T/C (relative tumor growth rate) [7] [%] | Tumor Volume Post-treatment [7] [mm^3] | Tumor Volume Pre-treatment [7] [mm^3] |
| --- | --- | --- | --- | --- | --- | --- | --- | --- | --- | --- | --- |
| < 70 | > 89 | > 89 | > 6.00 | > 5.70 | > 6.00 | – | – | O=C(Nc1ccc(Oc2ccc3ncc(N4CCNCC4)nc3c2)cc1)Nc1ccc(Cl)c(C(F)(F)F)c1 [Compound C089, 1-(4-chloro-3-(trifluoromethyl)phenyl)-3-(4-((3-(piperazin-1-yl)quinoxalin-6-yl)oxy)phenyl)urea] | 79 | 768.94 | 233.30 |
| < 70 | > 89 | 70 to 89 | – | – | < 5.30 | – | – | O=C(Nc1ccc(F)cc1)Nc1ccc(Oc2ccc3ncc(N4CCOCC4)nc3c2)cc1 [Compound C082, 1-(4-fluorophenyl)-3-(4-((3-morpholinoquinoxalin-6-yl)oxy)phenyl)urea] | – | – | – |
| – | > 89 | > 89 | 5.30 to 6.00 | > 5.70 | 5.30 to 6.00 | < 7.00 | > 7.00 | O=C(Nc1cccc(Oc2ccc3nccnc3c2)c1)Nc1ccc(Cl)c(C(F)(F)F)c1 [Compound C001, 1-(4-chloro-3-(trifluoromethyl)phenyl)-3-(3-(quinoxalin-6-yloxy)phenyl)urea] | – | – | – |
| 70 to 89 | > 89 | > 89 | 5.30 to 6.00 | > 5.70 | 5.30 to 6.00 | – | – | O=C(Nc1ccc(Oc2ccc3ncc(N4CCNCC4)nc3c2)cc1)Nc1ccc(F)c(C(F)(F)F)c1 [Compound C087, 1-(4-fluoro-3-(trifluoromethyl)phenyl)-3-(4-((3-(piperazin-1-yl)quinoxalin-6-yl)oxy)phenyl)urea] | 81 | 796.35 | 237.13 |
